Measurements from patent US20100158866A1, “PREDICTION OF HCV TREATMENT RESPONSE” (priority 2008, published 2010).

Key:
[1] = test system: HCV genotype 1; assay: Phase 2A clinical trial of RO4588161 with Pegasys with or without ribavirin: HCV RNA viral load and viral response (Roche COBAS TaqMan HCV Test); assay type: in vivo, human; settings: for mean change in viral concentrations (HCV RNA) from baseline at week 4: 4 weeks
Description: (§1) This was a phase 2A, multi-center, randomized, double-blinded (RO4588161 and ribavirin were double-blinded and Pegasys was open labeled), active-controlled, with a parallel-group study which is ongoing. A screening period (time from the first screening assessment to the first administration of test drug) of 35 days preceded the treatment portion of the trial (FIG. 1). The HCV genotype and HCV RNA titer of each patient was confirmed during the screening period and only treatment-naïve patients with HCV genotype-1 and HCV RNA titer […] were eligible for enrollment.
One hundred and seven male and female patients between 18 and 66 years of age were enrolled into the study. Patients were randomized into four treatment groups: • Group A/Dual 1500 [RO4588161 1500 mg oral, twice daily+Pegasys 180 μg subcutaneous, once weeky] for 4 weeks-21 patients, • Group B/Dual 3000 [RO4588161 3000 mg oral, twice daily+Pegasys 180 μg subcutaneous, once weekly] for 4 weeks-34 patients, • Group C/Triple 1500 [RO4588161 1500 mg oral, twice daily+Pegasys 180 μg subcutaneous, once weekly+ribavirin 1000 mg (<75 kg) or 1200 mg […] oral daily] for 4 weeks-31 patients or • Group D/standard of care (SOC) [Pegasys 180 μg subcutaneous, once weekly+ribavirin 1000 mg (<75 kg) or 1200 mg (≧75 kg) oral daily] for 4 weeks-21 patients
Patients meeting all eligibility criteria were randomized to receive RO4588161 in combination with Pegasys with or without ribavirin for 4 weeks or to SOC.
All patients who received at least one dose of study medication would continue to receive open label Pegasys 180 μg sc qw and ribavirin 1000 mg (<75 kg) or 1200 mg (≧75 kg) po qd to complete a total treatment period of 48 weeks.
Randomization was stratified by the PK subcohort (sparse PK versus intensive PK) in a 2:3:3:2 ratio into the following treatment groups (Group A/Dual 1500˜20, Group B/Dual 3000˜30, Group C/Triple 1500˜30, Group D/SOC˜20).
All patients were to have a safety follow up visit at week 8, 4 weeks after the last dose of the experimental drug combination. Patients were to have this 4 week safety follow up visit during their treatment with the standard of care therapy. Patients who have completed a full 48-week course of therapy were followed for 24 weeks post treatment completion.
Pharmacodynamic analysis included the assessment of serum viral load, and viral response at individual clinical visits and an assessment of antiviral resistance development with RO4588161 given in combination with Pegasys with or without ribavirin in treatment naïve patients with chronic HCV genotype 1 virus infection. Viral response was defined as the percentage of patients with undetectable HCV RNA as measured by the Roche COBAS TaqMan HCV Test (<15 IU/mL). Pharmacodynamic data were presented by listings, summary statistics (including means, medians, standard errors, confidence intervals for means, ranges, coefficients of variation, proportions of patients with response and confidence intervals for proportions) and plots of means over time.

[2] = Phase 2A clinical trial of RO4588161: premature withdrawal for safety reasons; assay type: in vivo, human
Description: as §1
One hundred and seven male and female patients between 18 and 66 years of age were enrolled into the study. Patients were randomized into four treatment groups: • Group A/Dual 1500 [RO4588161 1500 mg oral, twice daily+Pegasys 180 μg subcutaneous, once weeky] for 4 weeks-21 patients, • Group B/Dual 3000 [RO4588161 3000 mg oral, twice daily+Pegasys 180 μg subcutaneous, once weekly] for 4 weeks-34 patients, • Group C/Triple 1500 [RO4588161 1500 mg oral, twice daily+Pegasys 180 μg subcutaneous, once weekly+ribavirin 1000 mg (<75 kg) or 1200 mg […] oral daily] for 4 weeks-31 patients or • Group D/standard of care (SOC) [Pegasys 180 μg subcutaneous, once weekly+ribavirin 1000 mg (<75 kg) or 1200 mg (≧75 kg) oral daily] for 4 weeks-21 patients […]

[3] = test system: HCV genotype 1; assay: Phase II clinical trial of RO5024048 with Pegasys and ribavirin: plasma HCV RNA; assay type: in vivo, human
Description: Twenty-five (25) patients per Cohort of RO5024048 were enrolled. Twenty (20) patients per cohort received RO5024048 in combination with standard of care (SOC) and five (5) patients per cohort were randomized to receive SOC with a RO5024048 placebo. Patients were screened up to 56 days prior to enrollment. On Day −1, patients visited the clinic for pre-dose assessments. On Day 1, patients received an oral dose of study drug RO5024048 or placebo and Pegasys/ribovarin in the morning with a light meal and at least 240 mL of water.
A majority of dosing occurred on an outpatient basis. Periodically, patients returned to the clinic for study assessments. Early morning on Days 7, 14, 21, and 28, patients were asked to report to the clinic after an overnight fast. Patients received their RO5024048/placebo in combination with Pegasys and Ribovarin with a light meal and 240 mL of water in the morning in the clinic. Patients were followed through Day 56 (28 days after dosing is completed).
After completing four weeks of the combination-dosing regimen followed by at least 4 weeks of SOC dosing (RO5024048 washout), all patients were eligible to receive up to 40 weeks, depending upon genotype, of open label standard of care (SOC) dosing with Pegasys plus ribavirin. Genotype 2 or 3 subjects enrolling in Cohort 4 will receive a total of 24 weeks of Pegasys plus ribovarin. An overview of the study design is outlined in Table 1.

[4] = human, in vivo; cited from earlier work
[5] = test system: HCV; settings: cited from earlier work

With `CC(C)C(=O)OC[C@@]1(N=[N+]=[N-])O[C@@H](n2ccc(N)nc2=O)[C@H](OC(=O)C(C)C)[C@@H]1OC(=O)C(C)C` [RO4588161, Isobutyric acid (2R,3S,4R,5R)-5-(4-amino-2-oxo-2H-pyrimidin-1-yl)-2-azido-3,4-bis-isobutyryloxy-tetrahydro-furan-2-ylmethyl ester] the “mean change in viral concentrations (HCV RNA) from baseline at week 4” value ([1]; Dual 1500: RO4588161 1500 mg oral twice daily + Pegasys 180 μg sc once weekly) was −3.6 log10 IU/mL, the “difference in mean change in viral concentrations” value (from here on “difference in mean change”) ([1]; Dual 3000 vs Dual 1500, week 4, printed as 'minus 0.9') was 0.9 log10 IU/mL and the “mean change in viral concentrations (HCV RNA) from baseline at week 4” value ([1]; Triple 1500: RO4588161 1500 mg oral twice daily + Pegasys 180 μg sc once weekly + ribavirin 1000/1200 mg oral daily) was −5.2 log10 IU/mL. For the same molecule, the “patients achieving RVR4 (undetectable HCV RNA at four weeks of treatment)” value ([1]; Triple 1500 group (N=31)) was 23 out of the 31, the “patients achieving sustained virological response (SVR) at 24 weeks post treatment completion” value ([1]; Triple 1500 group, of the thirteen patients undetectable at two weeks) was “Eleven” and the “antiviral effect, non-overlapping 95% confidence intervals” value ([1]; Triple 1500 over Dual 1500 and SOC) was “superior antiviral effect”. For the same molecule, the “difference in mean change” value ([1]; Triple 1500 vs Dual 1500, week 4, printed as 'minus 1.6') was 1.6 log10 IU/mL, the “difference in mean change” value ([1]; Triple 1500 vs SOC, week 4, printed as 'minus 2.8') was 2.8 log10 IU/mL and the “decrease in the mean HCV RNA (IU/mL) from baseline at week 4” value ([1]; all RO4588161 containing groups (Dual 1500, Dual 3000, Triple 1500), 4 weeks treatment, treatment-naive HCV genotype-1 patients) was no less than 3.6 log10. The “earliest assessment at which declines in HCV RNA were observed, following the first dose” value ([1]; first assessment) was 72 h, the “plasma viral load following treatment” value ([1]; treatment with RO4588161, Pegasys and ribavirin) was “Dose- and time-dependent decreases” and the “patients who prematurely withdrew for safety reasons from the drug” value ([2]; among the 104 evaluable patients) was 43 patients.
In the case of `CC(C)C(=O)OC[C@H]1O[C@@H](n2ccc(N)nc2=O)[C@](C)(F)[C@@H]1OC(=O)C(C)C` [RO5024048, Isobutyric acid (2R,3R,4R,5R)-5-(4-amino-2-oxo-2H-pyrimidin-1-yl)-4-fluoro-3-isobutyryloxy-4-methyl-tetrahydro-furan-2-ylmethyl ester], the “whether HCV RNA could be detected at Week 8” value ([3]; 1500 mg RO5024048 + Pegasys + ribavirin, patients not undetectable until day 17 (FIG. 4) or day 28 (FIG. 5)) is reported as “mixed”, the “HCV RNA status on day 56 (Week 8)” value ([3]; 1500 mg RO5024048 + Pegasys + ribavirin, patients with undetectable HCV RNA at 14 days of treatment (FIG. 3)) is reported as “all HCV RNA negative” and the “decreases in plasma viral load” value ([3]; four-week treatment, 1500 mg RO5024048 twice daily with SOC dosing of Pegasys and ribavirin, compared with other dose levels) is reported as “most notable decreases”.
For `NC(=O)c1ncn([C@@H]2O[C@H](CO)[C@@H](O)[C@H]2O)n1` [ribavirin, 1-((2R,3R,4S,5R)-3,4-Dihydroxy-5-hydroxymethyl-tetrahydro-furan-2-yl)-1H-[1,2,4]triazole-3-carboxylic acid amide], the “patients with hemolytic anemia requiring dose reduction or discontinuation of ribavirin therapy” value [4] is given as 10-20 % of patients, the “patients in whom serum amino transferase levels are reduced to normal” value ([5]; monotherapy) is given as 40 % of patients and the “effect on serum levels of HCV-RNA” value ([5]; ribavirin monotherapy) is given as “does not lower”. The “patients who prematurely withdrew for safety reasons from the drug” value ([2]; both, human, in vivo, 4 weeks) was 5 patients.
